Results taken from patent US20250034136A1 (Nimbus Wadjet, Inc., priority 2023, published 2025).

How the values were obtained:
[1] = tested on: p21 induction in HCT116 cells; test: p21 induction in HCT116 cells; type: cell-based; settings: Homo sapiens, HCT-116, 24 h, HCT116 cells, 24 h compound incubation; read-out: P21_EC50
Procedure, shortened: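 HCT116 cells, 2,000/well, treated 24 h at 37 °C with 11-point compound dilutions in duplicate. Fixed, then immunostained for p21 and GAPDH and read by near-IR imaging at 800/700 nm. Normalized to DMSO (low) and reference WRN inhibitor (high) controls; EC50 from non-linear regression.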

[2] = target: WRN (BV08), human Werner helicase (Uniprot Q14191, amino acids 517-1235 with L1074F point mutation) (Homo sapiens (Human), UniProt Q14191, L1074F); test: WRN (BV08) ADP-Glo assay; type: biochemical; settings: class symbols A-E, read-out: ADP-Glo_hWRN_IC50
Sequence of WRN (BV08), human Werner helicase (Uniprot Q14191, amino acids 517-1235 with L1074F point mutation) (Q14191 other isoform, or with tags, fused parts or gaps L1074F (already in the parent)): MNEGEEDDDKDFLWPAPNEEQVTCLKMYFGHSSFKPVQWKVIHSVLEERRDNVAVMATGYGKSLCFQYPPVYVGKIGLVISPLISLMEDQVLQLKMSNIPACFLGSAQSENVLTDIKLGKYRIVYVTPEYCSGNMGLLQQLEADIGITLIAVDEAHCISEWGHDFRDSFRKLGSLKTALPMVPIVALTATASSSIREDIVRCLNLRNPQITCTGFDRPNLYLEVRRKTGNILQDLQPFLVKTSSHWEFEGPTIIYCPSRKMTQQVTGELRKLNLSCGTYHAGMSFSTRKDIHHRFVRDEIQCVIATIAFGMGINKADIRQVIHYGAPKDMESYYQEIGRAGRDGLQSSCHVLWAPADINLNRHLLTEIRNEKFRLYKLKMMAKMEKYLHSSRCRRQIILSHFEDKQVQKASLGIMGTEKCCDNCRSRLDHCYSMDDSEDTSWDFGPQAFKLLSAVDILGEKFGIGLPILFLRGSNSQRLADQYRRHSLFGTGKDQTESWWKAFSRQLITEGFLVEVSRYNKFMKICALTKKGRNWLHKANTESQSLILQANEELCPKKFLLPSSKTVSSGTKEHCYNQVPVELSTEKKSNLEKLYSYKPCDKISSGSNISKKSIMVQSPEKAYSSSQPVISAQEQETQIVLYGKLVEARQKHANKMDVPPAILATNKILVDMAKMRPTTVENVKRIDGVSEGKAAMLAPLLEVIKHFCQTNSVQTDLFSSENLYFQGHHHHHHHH

Compound | EC50 [1] [nM] | IC50 [2] [nM]
CCc1c(N2CCN(C(=O)c3ncnc(C)c3O)CC2)c(=O)c2nc(N3CCC[C@@H]3C)cnc2n1CC(=O)Nc1ccc(C(F)(F)F)cc1Cl [I-149, N-[2-chloro-4-(trifluoromethyl)phenyl]-2-{6-ethyl-7-[4-(5-hydroxy-6-methylpyrimidine-4-carbonyl)piperazin-1-yl]-2-[(2S)-2-methylpyrrolidin-1-yl]-8-oxo-5H,8H-pyrido[2,3-b]pyrazin-5-yl}acetamide] | 500 to 2000 | 5 to 50
CCc1c(N2CCN(C(=O)c3ncnc(C)c3O)[C@@H]3CC[C@H]32)c(=O)c2nc(C=C3CCC3)cnc2n1CC(=O)Nc1ccc(C(F)(F)F)cc1Cl (racemic) [I-135] | < 500 | 5 to 50
